# Source: paper PMC9743428 (ACS Medicinal Chemistry Letters, 2022)
# How the values were obtained:
# FFAR1 A83F = FFAR1 A83F (Homo sapiens, UniProt O14842, A83F); experiment: Mutagenesis, IP accumulation, FFAR1 A83F mutant; assay type: cell-based
# FFAR1 K259A = experiment: Mutagenesis, IP accumulation, FFAR1 K259A mutant; assay type: cell-based, human
# [1] = test system: FFAR1 mutants (Y12, E65, A66, K259, L262); experiment: Mutagenesis of the extracellular binding site, IP accumulation; assay type: cell-based, human
# FFAR4 = target: T1, FFAR4 (Homo sapiens, UniProt Q5NUL3); experiment: IP accumulation assay in transiently transfected COS7 cells, FFAR4; assay type: cell-based
# T1 sequence (Q5NUL3 1-361): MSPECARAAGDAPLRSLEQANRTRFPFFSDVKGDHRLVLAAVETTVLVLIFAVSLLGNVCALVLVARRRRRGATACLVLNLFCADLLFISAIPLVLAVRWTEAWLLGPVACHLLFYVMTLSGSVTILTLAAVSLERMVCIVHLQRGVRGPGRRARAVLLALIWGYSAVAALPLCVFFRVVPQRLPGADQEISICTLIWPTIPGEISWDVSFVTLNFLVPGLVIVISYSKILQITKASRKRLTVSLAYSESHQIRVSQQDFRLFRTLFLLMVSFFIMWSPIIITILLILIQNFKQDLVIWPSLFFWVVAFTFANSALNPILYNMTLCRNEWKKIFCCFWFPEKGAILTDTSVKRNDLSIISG
# FFAR1 = FFAR1 (Homo sapiens, UniProt O14842); experiment: IP accumulation assay in transiently transfected COS7 cells, FFAR1; assay type: cell-based; conditions: for improved potency on FFAR1: as compared to the unsubstituted phenyl 54; for improved potency on FFAR1 / reduction of potency on FFAR1: range for the group
# FFAR1, sequence (O14842 whole entry): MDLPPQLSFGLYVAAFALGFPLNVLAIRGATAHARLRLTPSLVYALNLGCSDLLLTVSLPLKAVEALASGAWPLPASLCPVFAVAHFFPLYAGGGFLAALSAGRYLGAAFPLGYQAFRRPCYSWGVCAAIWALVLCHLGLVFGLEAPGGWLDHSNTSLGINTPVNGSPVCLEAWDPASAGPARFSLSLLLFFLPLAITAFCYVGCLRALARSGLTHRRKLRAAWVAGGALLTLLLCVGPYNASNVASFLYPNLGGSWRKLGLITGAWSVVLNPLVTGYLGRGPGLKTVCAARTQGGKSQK
# FFAR1 A83F, sequence (O14842 whole entry A83F): as the sequence (O14842 whole entry) above, with A83F counted along it
smiles,measurement,setting,value
COc1ccc(F)c(-c2ccc(COc3ccc4c(c3)[C@]3(CC4)C[C@H]3C(=O)O)cc2[C@@H]2CCCC2(C)C)c1 [AM-5262],impact of A83F mutation on activity,FFAR1 A83F,none
same,"change in efficacy, K259A versus wild-type",FFAR1 K259A,−32%
same,effect of extracellular-site mutations on activity,[1],no effect on compound potency
Cc1cc(=O)oc2cc(OCc3nc(N)nc(Nc4ccc(C5CC5)cc4)n3)ccc12 [compound 7],activity on FFAR4,FFAR4,entirely inactive on FFAR4
Cc1ccc(Nc2nc(N)nc(COc3ccc4c(C)cc(=O)oc4c3)n2)cc1C [compound 13],activity on FFAR4,FFAR4,entirely inactive on FFAR4
Cc1cc(=O)oc2cc(OCc3nc(N)nc(Nc4cccc(O)c4)n3)ccc12 [compound 17],activity on FFAR1,FFAR1,inactive
Cc1cc(=O)oc2cc(OCc3nc(N)nc(Nc4ccc(O)cc4)n3)ccc12 [compound 18],activity on FFAR1,FFAR1,inactive
Cc1ccc(Nc2nc(N)nc(COc3cccc(N4CCCC4=O)c3)n2)cc1Cl [compound 28],loss of potency on FFAR1,FFAR1; versus 4-methylchroman-2-one compound 11,~6 fold
Cc1ccc(Nc2nc(N)nc(COc3cc(N4CCCC4=O)cc(C(F)(F)F)c3)n2)cc1Cl [compound 38],selectivity for FFAR1 over FFAR4,FFAR1,selective
Cc1ccc(Nc2nc(N)nc(COc3cc(Cl)cc(N4CCCC4=O)c3)n2)cc1Cl [compound 42],gain of potency on FFAR1,FFAR1; versus compound 28,5 fold
Cc1ccc(Nc2nc(N)nc(COc3cc(OC(F)(F)F)cc(N4CCCC4=O)c3)n2)cc1Cl [compound 46],selectivity for FFAR4 over FFAR1,FFAR4,selective
Cc1cc(OCc2nc(N)nc(NCCc3ccccc3)n2)cc(N2CCCC2=O)c1 [compound 54],increase of efficacy on FFAR1,FFAR1; as compared to compound 43,44%
Cc1cc(OCc2nc(N)nc(NCCc3cccc(Cl)c3)n2)cc(N2CCCC2=O)c1 [compound 58],improved potency on FFAR1,FFAR1,2–8 fold
Cc1cccc(CCNc2nc(N)nc(COc3cc(C)cc(N4CCCC4=O)c3)n2)c1 [compound 59],improved potency on FFAR1,FFAR1,2–8 fold
COc1cccc(CCNc2nc(N)nc(COc3cc(C)cc(N4CCCC4=O)c3)n2)c1 [compound 60],improved potency on FFAR1,FFAR1,2–8 fold
Cc1cc(OCc2nc(N)nc(NCCc3cccc(C(F)(F)F)c3)n2)cc(N2CCCC2=O)c1 [compound 61],improved potency on FFAR1,FFAR1,2–8 fold
Cc1cc(OCc2nc(N)nc(NCCc3cccc(OC(F)F)c3)n2)cc(N2CCCC2=O)c1 [compound 62],improved potency on FFAR1,FFAR1,2–8 fold
Cc1cc(OCc2nc(N)nc(NCCc3ccccc3F)n2)cc(N2CCCC2=O)c1 [compound 70],selectivity for FFAR1 over FFAR4,FFAR1,highly selective for FFAR1
Cc1cc(OCc2nc(N)nc(NCCc3ccccc3N3CCOCC3)n2)cc(N2CCCC2=O)c1 [compound 74],selectivity for FFAR4 over FFAR1,FFAR4,FFAR4-selective
same,activity on FFAR1,FFAR1,entirely inactive
Cc1cc(OCc2nc(N)nc(NCCc3cc(F)ccc3F)n2)cc(N2CCCC2=O)c1 [compound 75],loss of efficacy on FFAR1,FFAR1; versus compound 54,−26%
Cc1cc(OCc2nc(N)nc(NCCc3cc(C)ccc3F)n2)cc(N2CCCC2=O)c1 [compound 76],selectivity for FFAR1 over FFAR4,FFAR1,highly selective for FFAR1
Cc1cc(OCc2nc(N)nc(NCCc3cc(Cl)ccc3Cl)n2)cc(N2CCCC2=O)c1 [compound 83],effect of extracellular-site mutations on activity,[1],profound effect
Cc1cc(OCc2nc(N)nc(NCCc3ccc(Cl)cc3Cl)n2)cc(N2CCCC2=O)c1 [compound 84],reduction of potency on FFAR1,FFAR1; versus compound 54,2−3 fold
Cc1cc(OCc2nc(N)nc(NCCc3ccc(C)cc3C)n2)cc(N2CCCC2=O)c1 [compound 85],reduction of potency on FFAR1,FFAR1; versus compound 54,2−3 fold
COc1ccc(Cl)cc1CCNc1nc(N)nc(COc2cc(C)cc(N3CCCC3=O)c2)n1 [compound 86],reduction of potency on FFAR1,FFAR1; versus compound 54,2−3 fold
Cc1cc(OCc2nc(N)nc(NCCc3c(C)cccc3C)n2)cc(N2CCCC2=O)c1 [compound 87],reduction of potency on FFAR1,FFAR1; versus compound 54,2−3 fold
Cc1cc(OCc2nc(N)nc(NCC3(c4cccc(Cl)c4)CC3)n2)cc(N2CCCC2=O)c1 [compound 90],activity on FFAR4,FFAR4,loss of activity on FFAR4
Cc1cc(OCc2nc(N)nc(NC3(Cc4cccc(Cl)c4)CC3)n2)cc(N2CCCC2=O)c1 [compound 92],activity on FFAR4,FFAR4,loss of activity on FFAR4
Cc1cc(OCc2nc(N)nc(NCC(c3c(F)cccc3F)N(C)C)n2)cc(N2CCCC2=O)c1 (centres unmarked) [compound 93],activity on FFAR4,FFAR4,loss of activity on FFAR4
Cc1cc(OCc2nc(N)nc(NCC(c3cccc(Cl)c3)N3CCCC3)n2)cc(N2CCCC2=O)c1 (centres unmarked) [compound 94],activity on FFAR4,FFAR4,loss of activity on FFAR4
Cc1cc(OCc2nc(N)nc(NCCc3cccc4c3OC(F)(F)O4)n2)cc(N2CCCC2=O)c1 [compound 101],selectivity for FFAR1 over FFAR4,FFAR1,highly FFAR1-selective
